Data taken from the supplement of paper PMC10307832.

These cell lines were tested with c1ccc2c(CCNc3ccc(Nc4ccncc4)cc3)c[nH]c2c1 [Serdemetan] + C[C@@H](Oc1cc(-c2cnn(C3CCNCC3)c2)cnc1N)c1c(Cl)ccc(F)c1Cl [Crizotinib] (partner 1 µM) (assay: relative viability (nuclei count vs DMSO), 5 days (fraction); higher = more cells survive). Details: first compound 4 µM.
Outline: (§1)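 Lung cancer cell lines, seeded in 1536-well plates, were treated the following day by pin tool with a single drug or with five library-drug doses (not always all listed) in √10 steps on top of a fixed anchor-drug dose. Cells were fixed and nuclei stained in one step after 5 days, and nuclei were counted. Relative viability is the nuclei count for treated wells divided by that for vehicle wells, reported as medians of duplicate plates.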

First: PC-14
Second: EKVX
The relative viability of the first is lower: 0.745 for the first, 0.98 for the second.

First: LC-2-ad
Second: NCI-H1975
The relative viability of the first is lower: 0.407 for the first, 0.99 for the second.

The cell lines below were run with C1CC(C2=C(C1)C3=C(N2)C=CC(=C3)Cl)C(=O)N [Selisistat] + Nc1ncn([C@H]2C[C@H](O)[C@@H](CO)O2)c(=O)n1 [Decitabine] (partner 2 µM) in the same assay as above. Details: first compound 0.4 µM.
Outline: as §1

Compared with HCC-44, LU99A is lower in relative viability: 0.976 for the first, 0.947 for the second.

Compared with BEN, HARA is lower in relative viability: 0.923 for the first, 0.777 for the second.

Going from HCC-78 to NCI-H322M, the relative viability rises from 0.768 to 0.812.

Compared with LCLC-97TM1, NCI-H2009 is higher in relative viability: 0.24 for the first, 0.437 for the second.

Compared with A-427, NCI-H441 is lower in relative viability: 0.578 for the first, 0.268 for the second.

First: NCI-H661
Second: NCI-H1734
The relative viability of the first is higher: 0.592 for the first, 0.562 for the second.

Going from NCI-H460 to NCI-H2347, the relative viability rises from 0.474 to 0.695.

Compared with SK-LU-1, 201T is higher in relative viability: 0.716 for the first, 0.915 for the second.

First: NCI-H1915
Second: HCC-827
The relative viability of the first is lower: 0.268 for the first, 0.313 for the second.

Going from LXF-289 to NCI-H23, the relative viability falls from 0.425 to 0.303.

Going from NCI-H647 to NCI-H1651, the relative viability rises from 0.517 to 0.673.

Going from EPLC-272H to NCI-H1792, the relative viability rises from 0.365 to 0.625.

Compared with NCI-H1355, NCI-H3122 is higher in relative viability: 0.336 for the first, 0.387 for the second.

Compared with NCI-H1437, NCI-H1755 is higher in relative viability: 0.61 for the first, 0.787 for the second.

Compared with NCI-H2023, HCC-15 is higher in relative viability: 0.233 for the first, 0.695 for the second.

Compared with PC-14, EKVX is higher in relative viability: 0.201 for the first, 0.415 for the second.

First: LC-2-ad
Second: NCI-H1975
The relative viability of the first is higher: 0.909 for the first, 0.396 for the second.

Same assay, conditions: first compound 1.265 µM

First: HCC-44
Second: LU99A
The relative viability of the first is higher: 1.01 for the first, 0.928 for the second.

First: BEN
Second: HARA
The relative viability of the first is higher: 0.556 for the first, 0.529 for the second.

Going from HCC-78 to NCI-H322M, the relative viability falls from 0.794 to 0.708.

First: LCLC-97TM1
Second: NCI-H2009
The relative viability of the first is lower: 0.219 for the first, 0.338 for the second.

Going from A-427 to NCI-H441, the relative viability falls from 0.575 to 0.234.

Compared with NCI-H661, NCI-H1734 is lower in relative viability: 0.521 for the first, 0.436 for the second.

Compared with NCI-H460, NCI-H2347 is higher in relative viability: 0.499 for the first, 0.633 for the second.

Compared with SK-LU-1, 201T is higher in relative viability: 0.675 for the first, 0.816 for the second.

Going from NCI-H1915 to HCC-827, the relative viability rises from 0.244 to 0.375.

First: LXF-289
Second: NCI-H23
The relative viability of the first is higher: 0.379 for the first, 0.32 for the second.

First: NCI-H647
Second: NCI-H1651
The relative viability of the first is lower: 0.405 for the first, 0.699 for the second.

Going from EPLC-272H to NCI-H1792, the relative viability rises from 0.389 to 0.497.

First: NCI-H1355
Second: NCI-H3122
The relative viability of the first is lower: 0.383 for the first, 0.502 for the second.

Going from NCI-H1437 to NCI-H1755, the relative viability rises from 0.597 to 0.741.

Compared with NCI-H2023, HCC-15 is higher in relative viability: 0.198 for the first, 0.739 for the second.

Going from PC-14 to EKVX, the relative viability rises from 0.217 to 0.355.

Compared with LC-2-ad, NCI-H1975 is lower in relative viability: 0.797 for the first, 0.423 for the second.

Same assay, conditions: first compound 4 µM

First: HCC-44
Second: LU99A
The relative viability of the first is higher: 0.943 for the first, 0.847 for the second.

First: BEN
Second: HCC-78
The relative viability of the first is lower: 0.479 for the first, 0.6 for the second.

First: NCI-H2009
Second: NCI-H441
The relative viability of the first is higher: 0.372 for the first, 0.234 for the second.

First: NCI-H661
Second: NCI-H1734
The relative viability of the first is lower: 0.428 for the first, 0.45 for the second.

Going from NCI-H460 to SK-LU-1, the relative viability rises from 0.571 to 0.676.

Going from 201T to NCI-H1915, the relative viability falls from 0.845 to 0.264.

Going from HCC-827 to LXF-289, the relative viability rises from 0.31 to 0.337.

First: NCI-H647
Second: NCI-H1651
The relative viability of the first is lower: 0.218 for the first, 0.484 for the second.

First: NCI-H1355
Second: NCI-H1437
The relative viability of the first is lower: 0.345 for the first, 0.528 for the second.

Going from NCI-H1755 to NCI-H2023, the relative viability falls from 0.74 to 0.219.

Compared with PC-14, EKVX is higher in relative viability: 0.221 for the first, 0.339 for the second.

Going from LC-2-ad to NCI-H1975, the relative viability falls from 0.764 to 0.346.

Same assay, conditions: first compound 12.65 µM

Compared with HCC-44, LU99A is lower in relative viability: 1.01 for the first, 0.792 for the second.

Going from BEN to HARA, the relative viability falls from 0.707 to 0.48.

Going from HCC-78 to NCI-H322M, the relative viability rises from 0.66 to 0.747.

Going from LCLC-97TM1 to NCI-H2009, the relative viability rises from 0.245 to 0.45.

Compared with A-427, NCI-H441 is lower in relative viability: 0.655 for the first, 0.25 for the second.

Going from NCI-H661 to NCI-H1734, the relative viability rises from 0.46 to 0.556.

First: NCI-H460
Second: NCI-H2347
The relative viability of the first is lower: 0.467 for the first, 0.677 for the second.

Going from SK-LU-1 to 201T, the relative viability rises from 0.604 to 0.877.

First: NCI-H1915
Second: HCC-827
The relative viability of the first is lower: 0.255 for the first, 0.321 for the second.

Compared with LXF-289, NCI-H23 is lower in relative viability: 0.355 for the first, 0.328 for the second.

Compared with NCI-H647, NCI-H1651 is higher in relative viability: 0.359 for the first, 0.58 for the second.

Going from EPLC-272H to NCI-H1792, the relative viability rises from 0.382 to 0.516.

First: NCI-H1355
Second: NCI-H3122
The relative viability of the first is lower: 0.338 for the first, 0.499 for the second.

First: NCI-H1437
Second: NCI-H1755
The relative viability of the first is lower: 0.503 for the first, 0.729 for the second.

Going from NCI-H2023 to HCC-15, the relative viability rises from 0.216 to 0.737.

Compared with PC-14, EKVX is higher in relative viability: 0.237 for the first, 0.367 for the second.

First: LC-2-ad
Second: NCI-H1975
The relative viability of the first is higher: 0.821 for the first, 0.373 for the second.

Same assay, conditions: first compound 40 µM

Going from HCC-44 to LU99A, the relative viability falls from 1.07 to 0.907.

First: BEN
Second: HARA
The relative viability of the first is higher: 0.691 for the first, 0.647 for the second.

First: HCC-78
Second: NCI-H322M
The relative viability of the first is higher: 0.646 for the first, 0.637 for the second.

Compared with LCLC-97TM1, NCI-H2009 is higher in relative viability: 0.29 for the first, 0.394 for the second.

Going from A-427 to NCI-H441, the relative viability falls from 0.637 to 0.293.

First: NCI-H661
Second: NCI-H1734
The relative viability of the first is lower: 0.442 for the first, 0.455 for the second.

First: NCI-H460
Second: NCI-H2347
The relative viability of the first is lower: 0.513 for the first, 0.624 for the second.

Going from SK-LU-1 to 201T, the relative viability rises from 0.679 to 0.913.

Going from NCI-H1915 to HCC-827, the relative viability rises from 0.277 to 0.291.

Going from LXF-289 to NCI-H23, the relative viability falls from 0.431 to 0.355.

Going from NCI-H647 to NCI-H1651, the relative viability rises from 0.487 to 0.624.

First: EPLC-272H
Second: NCI-H1792
The relative viability of the first is lower: 0.364 for the first, 0.537 for the second.

First: NCI-H1355
Second: NCI-H3122
The relative viability of the first is lower: 0.388 for the first, 0.4 for the second.

Compared with NCI-H1437, NCI-H1755 is higher in relative viability: 0.543 for the first, 0.781 for the second.

First: NCI-H2023
Second: HCC-15
The relative viability of the first is lower: 0.202 for the first, 0.79 for the second.
